The values below come from patent publication US20170348349A1, “Modulation of Amyloid Beta Toxicity and Processing By Xenon Gas” (NOBLIS THERAPEUTICS, INC., priority 2016, published 2017).

Data set [1] concerns the target T1, Amyloid-beta protein (1-42) (Homo sapiens, UniProt P05067).
T1 construct: Amyloid-beta protein (1-42) hydrochloride salt (Bachem AG, Switzerland); purchased Bachem AG, Switzerland
As to the kind of experiment: Amyloid-beta (1-42) aggregation under anaesthetic gas: electrophoresis/western blot of monomer, LMW and HMW bands. Format: biochemical. As to conditions: Xenon (50%) in air balanced with 5% CO2, 37° C., 24 hours. The procedure:
For detection of monomer formation Amyloid-beta protein (1-42) hydrochloride salt (Bachem AG, Switzerland) stored at −80° C. was removed and placed on ice. 1,1,1,3,3,3-hexafluoro-2-propanol (HFIP) (Sigma-Aldrich, Poole, UK) was placed on ice in the hood and allow to cool.110 HFIP was added to 0.5 mg amyloid- ? to produce a final concentration of 1 mM. The HFIP plus amyloid-beta solution was mixed on the vortex to ensure no solid remained on the vial edges. The HFIP plus amyloid-beta solution was incubated at room temperature for 60 minutes with the vial closed. The solution was then placed on ice for 10 minutes. The HFIP plus amyloid-beta solution was aliquoted into non-siliconized micro-centrifuge tubes amyloid-beta1-42). […]
When required peptide film containing tubes were removed from the −80° C. freezer and placed on ice. […] The protein was produced as above and was analysed immediately this was termed 0 hours. […]
The treated samples were centrifuged at 14,000 rpm at 4° C. for 10 minutes. […] The bands were detected with horseradish peroxidase-linked Ig anti-rabbit antibody (concentration 1:1000) (New England Biolab, Hitchin, UK) and visualised with the enhanced chemiluminesence system (ECL, Amersham Biosciences, Little Chalfont, UK). The monomer, LMW and HMW bands were located using a protein ladder to determine the molecular mass and were then quantified by densitometry (Adobe Photoshop). […]
On the technique in general: In western blotting, separated proteins are transferred to a membrane and probed.

For data set [2] the following is noted: cited from earlier work.

Read-outs that look alike come from different tables or passages of the source.

T1 sequence (P05067 672-713 limits assumed): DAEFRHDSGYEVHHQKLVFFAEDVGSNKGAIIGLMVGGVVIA

On to `[Xe]` [xenon], for which the “Amyloid β aggregation (electrophoresis stain, FIG. 2A)” value in data set [1] is listed as “reduces Amyloid β aggregation”. Moreover, in data set [2] (12 healthy volunteers, xenon in increasing concentrations 10%, 20%, 30%, 40% (Peterson-Felix et al.)), the safety entry is recorded as “Safety was reported”. Besides, the adverse events entry in data set [2] (six healthy male volunteers, 21% xenon for 20 minutes (Yagi et al.)) is “no adverse events”; in data set [2] (ten healthy adults, xenon 25%, 30% and 35%, each for 5-minute intervals (Sclabassi et al.)), “no adverse events”.
